Assay results as given in PubChem BioAssay (NCI).
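Dose response: 5 concentrations. Exposure: 48 h. Format: 96-well plates. Endpoint: linear interpolation; highest concentration if not reached. The concentration for 50% growth inhibition is given as GI50. At the TGI there is no net growth.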

Assays:
Assay in all cases: NCI tumour cell line growth inhibition, 48 h
A498 renal = system: A498 renal
A549 NSCLC = system: A549 NSCLC
DU-145 prostate = system: DU-145 prostate
HT29 colon = system: HT29 colon
NCI-H522 lung = system: NCI-H522 lung
OVCAR-8 ovarian = system: OVCAR-8 ovarian
SK-MEL-5 melanoma = system: SK-MEL-5 melanoma
SNB-75 CNS = system: SNB-75 CNS
SW-620 colon = system: SW-620 colon
TK-10 renal = system: TK-10 renal
U251 CNS = system: U251 CNS

Row | SMILES | TGI (A498 renal) [µM] | TGI (A549 NSCLC) [µM] | TGI (DU-145 prostate) [µM] | TGI (HT29 colon) [µM] | TGI (NCI-H522 lung) [µM] | TGI (OVCAR-8 ovarian) [µM] | TGI (SK-MEL-5 melanoma) [µM] | TGI (SNB-75 CNS) [µM] | TGI (SW-620 colon) [µM] | TGI (TK-10 renal) [µM] | TGI (U251 CNS) [µM] | GI50 (DU-145 prostate) [µM] | GI50 (HT29 colon) [µM] | GI50 (SNB-75 CNS) [µM]
1 | OC1OC(c2ccc[nH]2)C(F)(F)C(F)(F)C1(F)F (centres undefined) | > 100 | > 100 | > 100 | > 100 | > 100 | > 100 | > 100 | > 100 | > 100 | > 100 | > 100 |  |  | 
2 | CCCN(CCC)C(=S)N/N=C/c1cccc(C)n1 | 0.473 | 10.3 | > 100 | > 100 | 2.51 | 0.729 | 0.654 | 0.991 | > 100 | 0.832 | > 100 |  |  | 
3 | CC(=O)NNc1nc(C)c(C(/C=C/c2ccccc2O)=N/NC(=O)c2ccncc2)s1 | > 100 | > 100 | > 100 | > 100 | > 100 | > 100 | > 100 | > 100 | > 100 | > 100 | > 100 |  |  | 
4 | CC1=C(C#N)C(=O)N(/N=C/c2ccc(Cl)cc2)C(=O)/C1=c1\o/c(=C2/C(=O)N(/N=C/c3ccc(Cl)cc3)C(=O)C(C#N)=C2C)c2nccnc12 | > 100 | > 100 | > 100 | > 100 | > 100 | > 100 | > 100 | 85.3 | > 100 |  | > 100 |  |  | 
5 | Cc1ccc(S(=O)(=O)Oc2coc(CO)cc2=O)cc1 | 30.2 | 28.1 | 27.1 | 30.4 | 3.71 | > 50 | 33.7 | 33.3 | 42 | 44.2 | 23.7 |  |  | 
6 | C=C1[C@H](OCC(C)C)[C@@H](OCC(C)C)[C@@H](O)C(C)(C)/C=C/[C@H](C)C(=O)[C@@]2(O)C[C@H](C)[C@H](O)[C@@H]2[C@H]1OCC(C)C | > 7.5 |  | > 7.5 |  | > 7.5 | > 7.5 | > 7.5 | > 7.5 | > 7.5 | > 7.5 | > 7.5 |  |  | 
7 | NC(=O)CC1(O)C=CC(=O)C=C1 | > 100 | > 100 | > 100 | > 100 | > 100 | > 100 | > 100 | > 100 | > 100 | > 100 | > 100 |  |  | 
8 | COC(=O)CC1CN(C(=O)OCc2ccccc2)C(C)(C)O1 (centres undefined) | > 100 | > 100 | > 100 |  | > 100 | > 100 | > 100 | 75.8 | > 100 | > 100 | > 100 |  |  | 
9 | CC1=C(C(=O)OC23CC4CC(CC(C4)C2)C3)C(c2ccccc2OC(F)F)C(C(=O)OC23CC4CC(CC(C4)C2)C3)=C(C)N1 (centres undefined) | > 100 | > 100 | > 100 | > 100 | > 100 | > 100 | > 100 | > 100 | > 100 |  | > 100 |  |  | 
10 | CC1(C)C[C@H]2C3=CC[C@@H]4[C@@]5(C)CC[C@H](O)C(C)(C)[C@@H]5CC[C@@]4(C)[C@]3(C)C[C@@H](O)[C@@]23C[C@@H]1OC3=O | > 100 | > 100 | > 100 | > 100 | > 100 | > 100 | > 100 | > 100 | > 100 | > 100 | > 100 |  |  | 
11 | COc1c(C(=O)O)cccc1-c1cccc(C(=O)NCCN(CCNC(=O)c2cccc(-c3cccc(C(=O)O)c3OC)c2OC)CCNC(=O)c2cccc(-c3cccc(C(=O)O)c3OC)c2OC)c1OC | 96.2 | > 100 | > 100 | > 100 | 75.8 | > 100 | 37.6 | > 100 | > 100 | > 100 | > 100 |  |  | 
12 | COC(=O)C1=C(C(=O)OC)C(C(=O)c2ccccc2)N2N=C(c3ccc(Cl)cc3)C=CC12 (centres undefined) | > 100 | > 100 | > 100 | > 100 | 43.5 | > 100 | > 100 |  | > 100 | > 100 | > 100 |  |  | 
13 | C/C(=C\c1csc(C)n1)[C@@H]1C[C@@H]2O[C@]2(C)CCC[C@H](C)[C@H](O)[C@@H](C)C(=O)C(C)(C)[C@@H](O)CC(=O)O1 (tested in a mixture with another compound) | > 1 | > 1 | 0.0682 | > 0.378 | 0.00766 | > 0.33 | > 1 |  | > 1 | > 1 | > 1 | 0.00528 | 0.000721 | 0.00551
14 | C#CCOC(=O)C(N)CS (centres undefined) | > 100 | > 100 | > 100 | > 100 | > 100 | > 100 | > 100 | > 100 | > 100 | > 100 | > 100 |  |  | 
15 | Cc1cc2c(cc1Cl)SC(NNC(=O)c1ccncc1)=NS2(=O)=O | > 10 | > 10 | > 10 | > 10 | > 10 | > 10 | > 10 | > 10 | > 10 | > 10 | > 10 |  |  | 
16 | COc1ccc(OC)c2c(=O)cc(-c3ccccc3)[nH]c12 | > 100 | > 100 | > 100 | > 100 | > 100 | > 100 |  | > 100 | > 100 | > 100 | > 100 |  |  | 
17 | CCC/C(Cl)=N\OC(=O)Nc1ccc(Br)cc1 | 32.2 | 45.2 | 27.2 | 44.1 | 3.53 | 28.9 | 27.7 | 29 | 5.52 | 27.2 | 32.1 |  |  | 
18 | CN(C)Cc1cc(C(=O)/C=C/c2c(Cl)cccc2Cl)cc(CN(C)C)c1O | 22.5 | 29.5 | 20.8 | 11.6 | 10.7 | 15.2 | 13.9 | 15.7 | 13.9 | 27.8 | 23.4 |  |  | 
19 | CC1=C/C(=N\N(C)C)C(C(O)(C(F)(F)F)C(F)(F)F)C(C)(C)C1 (centres undefined) | > 100 | > 100 | > 100 | > 100 | > 100 | > 100 | > 100 | > 100 | > 100 | > 100 | > 100 |  |  | 
